In patent US10508113B2, “Inhibitors of tyrosine kinase 2 mediated signaling” (AbbVie Inc., priority 2018, dated 2019):

Molecular target: T1, Tyk2/Jak2 (Homo sapiens, UniProt P29597)
T1 construct: Cell Type: Frozen primary phytohemagglutinin (PHA) T-Blasts; endogenous in cells; host or cells: primary PHA T-blasts
Assay: Tyk2 (Tyk2/Jak2 PSTAT4 T-Blast) alpha screen assay: inhibition of IL-12 induced phosphorylation of STAT4 in T-blast cells
Assay type: cell-based
Conditions: IL-12 induced pSTAT4, T-blast cells
Method: 1. TYK2 (TYK2/JAK2 PSTAT4 T-BLAST) ALPHA SCREEN ASSAY
IL-12 is known to transduce its signal through IL-12 receptor via Jak2 and/or Tyk2. For that reason, the activity against Tyk2/Jak2 was measured by determining the inhibition of IL-12 induced phosphorylation of STAT4 in T-blast cells. […] See, e.g., Sohn et al., J. Immunology (2013) 2205-2216.
Cell Type: Frozen primary phytohemagglutinin (PHA) T-Blasts; Culture Medium: Roswell Park Memorial Institute (RPMI) 1640 Medium, 10% heat-inactivated fetal bovine serum (FBS), 1% penicillin/streptomycin (Pen-Strep), 10 mM hydroxyethyl piperazineethanesulfonic acid (HEPES), 10 ng/mL recombinant human interleukin-12 (rhIL-12); Assay Medium: Hank's Balanced Salt Solution (HBSS), no phenol red.
i. Automated 11-point 1:3 dilution curve: 2.5 mM top concentration dispensed in column 1 of a Corning 96-well polypropylene plate. Dimethyl sulfoxide (DMSO) was added to column 12 for high and low controls. Compounds were serially diluted 1:3 by adding 20 uL stock to 40 μL DMSO across the plate via Hamilton Microlab Star instrument.
ii. Media dilution of compounds: Serially diluted compounds were diluted 1:50 in assay medium by adding 4 μL compound to 196 μL assay medium in a Corning 96-well polypropylene plate (now 2% DMSO).
iii. […]
Primary T-Blasts from overnight culture were centrifuged, washed once in assay medium, and pelleted. T-Blasts were counted and resuspended at 12,500,000 cells/mL. […]
Phosphorylated Signal Transducer and Activator of Transcription 4 (pSTAT4) was quantified using the PerkinElmer SureFire Ultra pSTAT4 (Tyrosine 693) Assay. […]
Make master mix of Protein A donor beads using the following volumes per well: 5.88 μL Dilution Buffer and 0.12 μL […]. […] Read plate on Perkin Elmer Envision. […]
Certain compounds listed in Table C were tested for Tyk2 activity following the aforementioned Tyk2 (Tyk2/Jak2 PSTAT4 T-Blast) alpha screen assay and Jak2 (PTATS UT7) alpha screen assay. […] Selectivity for Tyk2 over Jak1, and Tyk2 over Jak2, are calculated from the tabulated activity data.

T1 sequence (P29597 whole entry, other chains not shown): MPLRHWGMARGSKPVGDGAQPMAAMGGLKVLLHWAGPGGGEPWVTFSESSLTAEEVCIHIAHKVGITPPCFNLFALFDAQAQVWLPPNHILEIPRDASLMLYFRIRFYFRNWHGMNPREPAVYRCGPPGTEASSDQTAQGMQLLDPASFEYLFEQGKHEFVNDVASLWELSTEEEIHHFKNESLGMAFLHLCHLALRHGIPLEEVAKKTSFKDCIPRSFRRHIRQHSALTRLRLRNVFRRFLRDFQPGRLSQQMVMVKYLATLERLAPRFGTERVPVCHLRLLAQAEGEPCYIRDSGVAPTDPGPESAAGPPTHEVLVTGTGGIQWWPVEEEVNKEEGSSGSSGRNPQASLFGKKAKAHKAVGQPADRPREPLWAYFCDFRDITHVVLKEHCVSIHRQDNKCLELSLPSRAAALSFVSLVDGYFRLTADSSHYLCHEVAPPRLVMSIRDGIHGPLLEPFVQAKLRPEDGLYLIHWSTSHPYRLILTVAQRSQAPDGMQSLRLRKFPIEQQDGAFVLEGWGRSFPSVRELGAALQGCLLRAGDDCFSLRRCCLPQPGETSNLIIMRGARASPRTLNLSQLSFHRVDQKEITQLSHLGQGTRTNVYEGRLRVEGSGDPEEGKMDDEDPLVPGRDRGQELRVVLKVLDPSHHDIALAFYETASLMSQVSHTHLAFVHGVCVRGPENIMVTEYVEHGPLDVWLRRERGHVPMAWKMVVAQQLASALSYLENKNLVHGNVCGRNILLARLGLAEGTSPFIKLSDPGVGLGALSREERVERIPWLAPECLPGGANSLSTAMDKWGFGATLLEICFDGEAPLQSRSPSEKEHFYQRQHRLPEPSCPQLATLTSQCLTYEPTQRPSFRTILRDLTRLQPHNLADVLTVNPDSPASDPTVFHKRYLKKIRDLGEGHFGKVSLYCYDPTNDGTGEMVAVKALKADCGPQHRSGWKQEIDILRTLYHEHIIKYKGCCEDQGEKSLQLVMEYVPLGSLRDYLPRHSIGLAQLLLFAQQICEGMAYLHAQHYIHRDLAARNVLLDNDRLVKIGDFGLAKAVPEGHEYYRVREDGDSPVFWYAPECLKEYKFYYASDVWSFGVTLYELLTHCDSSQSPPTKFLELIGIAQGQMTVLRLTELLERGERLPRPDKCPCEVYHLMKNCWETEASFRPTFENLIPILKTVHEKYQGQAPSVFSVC

For `CC(=O)Nc1cc2c(-c3cccc([C@@]4(CO)CCOC4)n3)c[nH]c2cn1` [21-NH (R-isomer)], the EC50 was 540 nM.
